# Results as given in the supplement of paper PMC10307832.
# How the values were obtained:
# Assay in all cases: relative viability (nuclei count vs DMSO), 5 days (fraction); higher = more cells survive
# Tosedostat + Luminespib = compound: CC(C)C[C@@H](C(=O)N[C@H](C(=O)OC1CCCC1)c1ccccc1)[C@H](O)C(=O)NO [Tosedostat] + CCNC(=O)c1noc(-c2cc(C(C)C)c(O)cc2O)c1-c1ccc(CN2CCOCC2)cc1 [Luminespib] (partner 0.01 µM)
# How it was run: (§1)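 The day after seeding in 1536-well plates, lung cancer cell lines were treated by pin tool with a single drug, or with a fixed anchor-drug dose together with five library-drug doses (not always all listed) in √10 steps. After 5 days, a combined fix-and-stain solution (final 0.05% Triton X-100, 1% formaldehyde, 1 ug/ml Hoechst) was added. Nuclei counted on 4× images gave relative viability as treated counts over vehicle counts, reported as the median of duplicate plates.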
# [1] = compound: CC1=NN=C(O1)C2=NN=C(C=C2)N3CCC(CC3)OC4=C(C=CC(=C4)F)Cl + NC(=O)Nc1cc(-c2cccc(F)c2)sc1C(=O)N[C@H]1CCCNC1 [AZD7762] (partner 0.2 µM)
# How it was run: as §1
# [2] = compound: CC1=NN=C(O1)C2=NN=C(C=C2)N3CCC(CC3)OC4=C(C=CC(=C4)F)Cl + CS(=O)(=O)N1CCN(Cc2cc3nc(-c4cccc5[nH]ncc45)nc(N4CCOCC4)c3s2)CC1 [Pictilisib] (partner 1 µM)
# How it was run: as §1
# Tosedostat + Olaparib = compound: CC(C)C[C@@H](C(=O)N[C@H](C(=O)OC1CCCC1)c1ccccc1)[C@H](O)C(=O)NO [Tosedostat] + O=C(c1cc(Cc2n[nH]c(=O)c3ccccc23)ccc1F)N1CCN(C(=O)C2CC2)CC1 [Olaparib] (partner 8 µM)
# How it was run: as §1
Cell Line,relative viability (Tosedostat + Luminespib; first compound 0.02 µM),relative viability (Tosedostat + Luminespib; first compound 0.06325 µM),relative viability (Tosedostat + Luminespib; first compound 0.2 µM),relative viability (Tosedostat + Luminespib; first compound 0.6325 µM),relative viability (Tosedostat + Luminespib; first compound 2 µM),relative viability ([1]; first compound 0.253 µM),relative viability ([1]; first compound 0.8 µM),relative viability ([1]; first compound 2.53 µM),relative viability ([1]; first compound 8 µM),relative viability ([2]; first compound 0.253 µM),relative viability ([2]; first compound 0.8 µM),relative viability ([2]; first compound 2.53 µM),relative viability ([2]; first compound 8 µM),relative viability (Tosedostat + Olaparib; first compound 0.06325 µM),relative viability (Tosedostat + Olaparib; first compound 0.2 µM),relative viability (Tosedostat + Olaparib; first compound 0.6325 µM),relative viability (Tosedostat + Olaparib; first compound 2 µM),relative viability (Tosedostat + Olaparib; first compound 0.02 µM)
NCI-H2085,0.377,0.969,0.491,0.407,0.4,0.636,0.667,0.797,0.607,0.387,0.471,0.452,0.39,0.86,0.784,0.784,0.782,–
CAL-12T,0.364,0.304,0.834,0.713,0.353,0.637,0.586,0.606,0.479,0.392,0.553,0.327,0.191,0.658,0.588,0.59,0.549,0.769
NCI-H1623,0.51,0.622,0.607,0.538,0.607,–,–,–,–,–,–,–,–,–,–,–,–,–
HCC-44,1.29,0.987,0.985,0.957,0.834,0.388,0.609,0.495,0.452,0.42,0.444,0.578,0.472,0.984,0.97,0.949,0.916,0.965
EKVX,0.796,0.884,0.853,0.784,0.806,0.517,0.434,0.465,0.535,0.323,0.31,0.388,0.345,0.834,0.818,0.576,0.721,0.754
NCI-H1734,0.183,0.197,0.194,0.229,0.232,0.612,0.413,0.672,0.662,0.451,0.404,0.421,0.355,0.505,0.577,0.431,0.536,0.651
NCI-H1944,0.855,0.599,0.758,0.724,0.748,0.368,0.348,0.561,0.441,0.31,0.381,0.381,0.331,0.427,0.414,0.355,0.371,0.429
NCI-H1792,0.427,0.356,0.433,0.802,0.935,0.535,0.574,0.689,0.472,0.205,0.314,0.375,0.411,0.425,0.386,0.317,0.432,0.481
Calu-6,–,–,–,–,–,–,–,–,–,0.735,0.747,0.702,0.696,0.494,0.5,0.439,0.326,0.631
EBC-1,–,–,–,–,–,–,–,–,–,0.33,0.485,0.473,0.408,0.637,0.546,0.442,0.409,0.661
NCI-H596,1.07,1.26,1.04,0.893,0.938,0.975,0.853,0.97,0.946,–,0.352,0.366,0.363,0.662,0.776,0.598,0.49,0.66
A-427,0.882,0.739,1.01,0.919,1.08,0.726,0.526,0.824,0.724,0.859,–,0.675,0.54,0.674,0.708,0.757,0.747,0.763
NCI-H441,0.347,0.351,0.348,0.332,0.306,0.621,0.632,0.69,0.608,0.504,0.423,0.389,0.389,0.533,0.364,0.384,0.322,0.711
NCI-H1563,0.575,0.52,0.5,0.648,0.492,–,–,–,–,0.625,0.694,0.659,0.633,–,–,–,–,–
NCI-H358,0.229,0.304,0.234,0.293,0.187,0.559,0.521,0.614,0.544,0.355,0.345,0.387,0.357,0.679,0.438,0.229,0.211,0.547
LOU-NH91,0.377,0.454,0.313,0.306,0.322,–,0.715,0.816,0.717,–,0.519,0.55,0.499,0.901,0.893,0.79,0.768,0.948
NCI-H3122,0.0953,0.083,0.106,0.122,0.132,0.444,0.469,0.503,0.485,0.643,0.593,0.648,0.642,0.593,0.574,0.508,0.562,0.631
HOP-62,1.01,0.894,0.925,0.919,0.817,0.556,0.22,0.452,0.228,0.652,–,0.645,0.331,0.346,0.321,0.245,0.363,0.638
HARA,0.683,0.554,0.766,0.481,0.779,0.416,0.305,0.387,0.337,0.263,0.282,0.336,0.191,0.853,0.779,0.519,0.662,0.762
SW 1573,0.219,0.215,0.456,0.411,0.277,–,–,–,–,0.527,0.415,0.473,0.383,0.42,0.363,0.372,0.281,0.493
NCI-H1993,0.87,0.736,1.05,0.827,0.781,0.713,0.69,0.769,0.652,0.742,0.78,0.821,0.789,1.04,0.943,0.736,0.769,1.13
HCC-78,–,–,–,–,–,0.457,0.483,0.463,0.373,0.204,0.234,0.11,0.184,0.796,0.766,0.754,0.75,0.683

Cell Line,relative viability (Tosedostat + Luminespib; first compound 0.02 µM),relative viability (Tosedostat + Luminespib; first compound 0.06325 µM),relative viability (Tosedostat + Luminespib; first compound 0.2 µM),relative viability (Tosedostat + Luminespib; first compound 0.6325 µM),relative viability (Tosedostat + Luminespib; first compound 2 µM),relative viability ([1]; first compound 0.253 µM),relative viability ([1]; first compound 0.8 µM),relative viability ([1]; first compound 2.53 µM),relative viability ([1]; first compound 8 µM),relative viability ([2]; first compound 0.253 µM),relative viability ([2]; first compound 0.8 µM),relative viability ([2]; first compound 2.53 µM),relative viability ([2]; first compound 8 µM),relative viability (Tosedostat + Olaparib; first compound 0.06325 µM),relative viability (Tosedostat + Olaparib; first compound 0.2 µM),relative viability (Tosedostat + Olaparib; first compound 0.6325 µM),relative viability (Tosedostat + Olaparib; first compound 2 µM),relative viability (Tosedostat + Olaparib; first compound 0.02 µM)
IA-LM,–,–,–,–,–,–,–,–,–,0.173,0.195,0.203,0.187,0.869,0.655,0.814,0.662,0.839
NCI-H647,0.11,0.212,0.171,0.334,0.167,0.462,0.294,0.472,0.248,0.398,0.552,0.392,0.391,0.446,0.506,0.376,0.51,0.799
NCI-H520,0.172,0.252,0.209,0.291,0.225,–,–,–,–,0.3,0.325,0.29,0.316,0.362,0.293,0.301,0.304,0.402
NCI-H1355,0.699,0.782,0.779,0.688,0.648,0.571,0.385,0.773,0.692,–,–,0.453,0.374,0.662,0.649,0.587,0.607,0.731
COR-L23,0.792,0.729,0.687,0.698,0.504,–,–,–,–,0.66,0.621,0.686,0.469,0.295,0.291,0.269,0.268,0.471
NCI-H2023,0.912,0.628,0.796,0.571,0.614,–,–,–,–,0.22,0.27,0.308,0.18,0.424,0.332,0.348,0.372,0.509
NCI-H2228,0.149,0.132,0.198,0.188,0.12,–,–,–,–,0.297,0.313,0.538,0.404,0.56,0.518,0.598,0.272,0.735
COR-L 105,0.693,0.726,0.835,0.733,0.693,–,–,–,–,0.426,0.405,0.334,0.378,0.636,0.695,0.507,0.591,0.771
NCI-H1650,0.185,0.179,0.205,0.19,0.174,–,–,–,–,–,0.588,0.554,0.561,0.732,0.754,0.515,0.594,0.768
NCI-H1299,–,–,–,–,–,–,–,–,–,0.698,0.611,0.71,0.713,0.947,0.954,0.864,0.835,1.04
NCI-H2009,1.12,1,1.05,0.97,1.04,–,–,–,–,0.711,0.618,0.659,0.637,0.592,0.661,0.603,0.544,0.702
NCI-H522,1.29,1.27,1.23,1.41,1.27,0.9,0.879,0.857,0.715,–,–,–,–,0.644,0.658,0.788,0.637,0.637
NCI-H1703,–,–,–,–,–,0.097,0.129,0.153,0.0983,0.226,0.265,0.258,0.279,0.373,0.293,0.29,0.311,0.45
NCI-H1648,–,–,–,–,–,0.434,0.532,0.6,0.503,–,–,–,–,0.644,0.764,0.875,0.587,0.799
SK-LU-1,0.213,0.211,0.217,0.2,0.188,–,–,–,–,0.518,0.508,0.529,0.42,0.45,0.335,0.391,0.367,0.467
SK-MES-1,0.813,0.813,0.898,0.789,0.74,–,–,–,–,0.263,0.377,0.341,0.384,0.672,0.698,0.601,0.404,0.719
NCI-H2342,0.686,0.732,0.806,0.859,0.883,0.417,0.415,0.479,0.299,–,–,–,–,0.392,0.444,0.295,0.373,0.401
SW 900,0.175,0.182,0.19,0.17,0.155,–,0.563,0.596,0.66,–,–,–,–,1.02,0.983,0.752,0.629,0.784
HCC-366,–,–,–,–,–,0.118,0.144,0.225,0.173,0.12,0.197,0.15,0.142,0.334,0.385,0.32,0.33,0.361
A549,–,–,–,–,–,–,–,–,–,0.406,0.255,0.319,0.234,0.247,0.359,0.26,0.306,0.42
NCI-H661,0.958,0.957,0.977,0.909,0.885,–,–,–,–,0.386,0.367,0.376,0.366,0.723,0.75,0.72,0.724,0.814
